The test system of one experiment is βAPP. Nature of the experiment: βAPP protein levels in U373 MG astrocytoma cells, western blot. It counts as cell-based. The settings on record: FIGS. 6A-C, alone or with PD98059 or LY294002. As for the experimental part:
SK-N-SH neuroblastoma cells were cultured on 60 mm dishes at a concentration of 3×10^6 cells, and SH-SY-5Y neuroblastoma and U373 astrocytorna cell lines were plated in 100 mm dishes at a concentration of 3×10^5 cells. The cells were allowed to grow in complete medium ([…], 2 mM glutamine in DMEM) for 3 to 4 days until they reached 70% confluence. To start the experiment, spent medium was removed and replaced with fresh medium (SKNSH—4 ml of DMEM+0.5% FBS; U373—5 ml of DMEM+2.5% FBS) containing 0, 5, or 50 μM phenserine. The cells were incubated at 37° C., 5% CO2 for the specific times indicated. Different media and sera were purchased from Life Technologies (Gaithersberg, Md.). […]
At each time point, the spent medium was collected and stored at −70° C. for later analysis of secretory βAPP levels. The cells were washed twice with PBS, pH 7.4 and incubated on ice for 15 min for lysis with 100 μL of lysis buffer (20 mM HEPES, 2 mM EGTA, 50 mM (β-glycophosphate, 1 mM sodium orthovanadate, 1% Triton X-100, 10% glycerol) containing appropriate protease inhibitors (2 mM PMSF, 100 μg/mL aprotinin, 25 μM leupeptin and 20 μg/mL soybean trypsin inhibitor). Each lysate was microcentrifuged for 15 min at 14 000 rpm. Protein levels of the supernatant were analyzed by the Bradford protein assay (BioRad, Melville, N.Y.). […]

A further experiment relates to Aβ1-40. Nature of the experiment: Aβ1-40 levels in cerebral cortex of transgenic mice, ELISA. It counts as in vivo. The settings on record: formic acid extraction, 3 weeks daily. As for the experimental part: (§1) Greater reductions could be achieved, but, as previously reported, doses of >5 mg/kg produce cholinergic side effects for the (−)-enantiomer but not for the (+)-enantiomer.
(§2) Samples of cerebral cortex from the transgenic mice then were analyzed for β amyloid peptide (Aβ) levels. Specifically, Aβ1-40 and Aβ1-42 levels, following formic acid extraction, were determined by ELISA assay (Suzuki et al., 1994).
(In general: In an ELISA, binding on a coated surface is turned into a signal by an enzyme label.)

For the next experiment, the system named is Aβ1-42. The experiment in a line: Aβ1-42 levels in cerebral cortex of transgenic mice, ELISA. It counts as in vivo. The settings on record: formic acid extraction, 3 weeks daily. Here is the method:
as §1, §2

For `CN1CC[C@@]2(C)c3cc(OC(=O)Nc4ccccc4)ccc3N(C)[C@@H]12` [(−)-phenserine], the “reduction of βAPP protein levels, densitometric quantification” value with βAPP is greater than 25%. Also, the “reduction of Aβ1-40 levels” value in the experiment with Aβ1-40 amounted to 68%. In addition, the “reduction of Aβ1-42 levels” value in the experiment with Aβ1-42 stood at 53%.

The values are drawn from patent US8691864B2, “Agents useful for reducing amyloid precursor protein and treating dementia and methods of use thereof” (priority 2000, dated 2014).
